Converted amounts (≈) assume the structure as drawn.
Columns and labels:
Assay type in all cases: functional
Acinetobacter baumannii = test: Antibacterial activity against Acinetobacter baumannii by microbroth dilution method
Staphylococcus aureus [1] = test: Antibacterial activity against Staphylococcus aureus ATCC 29213 by microbroth dilution method
Pseudomonas aeruginosa [2] = test: Antibacterial activity against Pseudomonas aeruginosa ATCC 27853 by microbroth dilution method
Candida albicans [3] = test: Antifungal activity against drug-resistant Candida albicans
Pseudomonas aeruginosa [4] = test: Antibacterial activity against Pseudomonas aeruginosa by microbroth dilution method
Aspergillus fumigatus = test: Antifungal activity against Aspergillus fumigatus
Staphylococcus aureus [5] = test: Antibacterial activity against drug-resistant Staphylococcus aureus by microbroth dilution method
Escherichia coli [6] = test: Antibacterial activity against drug-resistant Escherichia coli by microbroth dilution method
Escherichia coli [7] = test: Antibacterial activity against Escherichia coli ATCC 25922 by microbroth dilution method
Enterococcus faecalis = test: Antibacterial activity against drug-resistant Enterococcus faecalis by microbroth dilution method
Candida parapsilosis = test: Antifungal activity against Candida parapsilosis ATCC 22019; settings: Lodderomyces parapsilosis
Candida tropicalis = test: Antifungal activity against drug-resistant Candida tropicalis
Candida albicans [8] = test: Antifungal activity against Candida albicans ATCC 90023
Staphylococcus aureus [9] = test: Antibacterial activity against methicillin-resistant Staphylococcus aureus N315 by microbroth dilution method
Klebsiella pneumoniae = test: Antibacterial activity against Klebsiella pneumoniae by microbroth dilution method
Staphylococcus aureus [10] = test: Antibacterial activity against Staphylococcus aureus ATCC 25923 by microbroth dilution method

Structure (SMILES)	MIC (Acinetobacter baumannii) [µM]	MIC (Staphylococcus aureus [1]) [µM]	MIC (Pseudomonas aeruginosa [2]) [µM]	MIC (Candida albicans [3]) [µM]	MIC (Pseudomonas aeruginosa [4]) [µM]	MIC (Aspergillus fumigatus) [µM]	MIC (Staphylococcus aureus [5]) [µM]	MIC (Escherichia coli [6]) [µM]	MIC (Escherichia coli [7]) [µM]	MIC (Enterococcus faecalis) [µM]	MIC (Candida parapsilosis) [µM]	MIC (Candida tropicalis) [µM]	MIC (Candida albicans [8]) [µM]	MIC (Staphylococcus aureus [9]) [µM]	MIC (Klebsiella pneumoniae) [µM]	MIC (Staphylococcus aureus [10]) [µM]
C/C(Cn1cc(-c2csc(C)n2)c(=O)c2cc(F)ccc21)=N\NC(N)=S	658 (≈ 256 µg/mL)	658 (≈ 256 µg/mL)	658 (≈ 256 µg/mL)	658 (≈ 256 µg/mL)	658 (≈ 256 µg/mL)	658 (≈ 256 µg/mL)	658 (≈ 256 µg/mL)	658 (≈ 256 µg/mL)	658 (≈ 256 µg/mL)	1320 (≈ 513 µg/mL)	329 (≈ 128 µg/mL)	1320 (≈ 513 µg/mL)	658 (≈ 256 µg/mL)	658 (≈ 256 µg/mL)	165 (≈ 64.3 µg/mL)	658 (≈ 256 µg/mL)
C/C(Cn1cc(-c2csc(C)n2)c(=O)c2cc(F)c(F)cc21)=N\NC(N)=S	314 (≈ 128 µg/mL)	1260 (≈ 513 µg/mL)	314 (≈ 128 µg/mL)	1260 (≈ 513 µg/mL)	314 (≈ 128 µg/mL)	1260 (≈ 513 µg/mL)	1260 (≈ 513 µg/mL)	1260 (≈ 513 µg/mL)	1260 (≈ 513 µg/mL)	629 (≈ 256 µg/mL)	1260 (≈ 513 µg/mL)	1260 (≈ 513 µg/mL)	1260 (≈ 513 µg/mL)	1260 (≈ 513 µg/mL)	1260 (≈ 513 µg/mL)	1260 (≈ 513 µg/mL)
Nc1nc(-c2c[nH]c3c(F)cccc3c2=O)cs1	490 (≈ 128 µg/mL)	981 (≈ 256 µg/mL)	981 (≈ 256 µg/mL)	981 (≈ 256 µg/mL)	981 (≈ 256 µg/mL)	490 (≈ 128 µg/mL)	981 (≈ 256 µg/mL)	981 (≈ 256 µg/mL)	981 (≈ 256 µg/mL)	490 (≈ 128 µg/mL)	245 (≈ 64 µg/mL)	981 (≈ 256 µg/mL)	490 (≈ 128 µg/mL)	981 (≈ 256 µg/mL)	981 (≈ 256 µg/mL)	981 (≈ 256 µg/mL)
C/C(Cn1cc(-c2csc(N)n2)c(=O)c2cc(F)c(Cl)cc21)=N\O	350 (≈ 128 µg/mL)	44 (≈ 16.1 µg/mL)	44 (≈ 16.1 µg/mL)	87 (≈ 31.9 µg/mL)	87 (≈ 31.9 µg/mL)	699 (≈ 256 µg/mL)	44 (≈ 16.1 µg/mL)	350 (≈ 128 µg/mL)	22 (≈ 8.07 µg/mL)	350 (≈ 128 µg/mL)	44 (≈ 16.1 µg/mL)	699 (≈ 256 µg/mL)	44 (≈ 16.1 µg/mL)	350 (≈ 128 µg/mL)	699 (≈ 256 µg/mL)	44 (≈ 16.1 µg/mL)
Nc1nc(-c2c[nH]c3cc(Cl)c(F)cc3c2=O)cs1	868 (≈ 257 µg/mL)	434 (≈ 128 µg/mL)	868 (≈ 257 µg/mL)	217 (≈ 64.2 µg/mL)	868 (≈ 257 µg/mL)	217 (≈ 64.2 µg/mL)	868 (≈ 257 µg/mL)	434 (≈ 128 µg/mL)	217 (≈ 64.2 µg/mL)	868 (≈ 257 µg/mL)	1740 (≈ 513 µg/mL)	217 (≈ 64.2 µg/mL)	109 (≈ 32.2 µg/mL)	1740 (≈ 513 µg/mL)	868 (≈ 257 µg/mL)	217 (≈ 64.2 µg/mL)
CCOC(=O)c1cn(C/C(C)=N/NC(N)=S)c2cc(Cl)c(F)cc2c1=O	643 (≈ 256 µg/mL)	643 (≈ 256 µg/mL)	322 (≈ 128 µg/mL)	1290 (≈ 513 µg/mL)	322 (≈ 128 µg/mL)	322 (≈ 128 µg/mL)	643 (≈ 256 µg/mL)	1290 (≈ 513 µg/mL)	1290 (≈ 513 µg/mL)	643 (≈ 256 µg/mL)	161 (≈ 64.2 µg/mL)	643 (≈ 256 µg/mL)	643 (≈ 256 µg/mL)	643 (≈ 256 µg/mL)	643 (≈ 256 µg/mL)	643 (≈ 256 µg/mL)
CC(=O)Cn1cc(-c2csc(N)n2)c(=O)c2cc(F)c(F)cc21	382 (≈ 128 µg/mL)	382 (≈ 128 µg/mL)	382 (≈ 128 µg/mL)	764 (≈ 256 µg/mL)	382 (≈ 128 µg/mL)	382 (≈ 128 µg/mL)	382 (≈ 128 µg/mL)	764 (≈ 256 µg/mL)	382 (≈ 128 µg/mL)	382 (≈ 128 µg/mL)	764 (≈ 256 µg/mL)	764 (≈ 256 µg/mL)	382 (≈ 128 µg/mL)	382 (≈ 128 µg/mL)	764 (≈ 256 µg/mL)	382 (≈ 128 µg/mL)
Nc1nc(-c2c[nH]c3cc(F)c(F)cc3c2=O)cs1	918 (≈ 256 µg/mL)	459 (≈ 128 µg/mL)	459 (≈ 128 µg/mL)	229 (≈ 64 µg/mL)	459 (≈ 128 µg/mL)	229 (≈ 64 µg/mL)	459 (≈ 128 µg/mL)	459 (≈ 128 µg/mL)	459 (≈ 128 µg/mL)	918 (≈ 256 µg/mL)	459 (≈ 128 µg/mL)	459 (≈ 128 µg/mL)	229 (≈ 64 µg/mL)	459 (≈ 128 µg/mL)	918 (≈ 256 µg/mL)	459 (≈ 128 µg/mL)

From ChEMBL document CHEMBL5584255, “Synthesis and antibacterial medicinal evaluation of carbothioamido hydrazonyl thiazolylquinolone with multitargeting antimicrobial potential to combat increasingly global resistance” (Eur J Med Chem, 2024)
